US9376425B2, “Heterocyclic compounds as MDM2 inhibitors for the treatment of cancer” (AMGEN INC., priority 2011, dated 2016)

Each compound was assayed against T1, human MDM2 (GST-hMDM2 1-188), interaction with biotinylated-p53 (1-83) (Homo sapiens, UniProt Q00987) (assay: improved HTRF assay (HTRF2 assay), inhibition of HDM2-p53 interaction). Settings: 0.2 nM GST-hMDM2, 0.5 nM biotinylated-p53, 100 mM KF.
T1 construct: Amino acid residues 1-188 of human MDM2 were expressed; made in house; host or cells: Escherichia coli
Type: binding
Summary of the method: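 Time-resolved fluorescence (HTRF) read after >4 h equilibration with SA-XLent/anti-GST cryptate/KF detection reagents. Reaction: compound plus GST-hMDM2 for 20 min at room temperature, then E. coli-expressed biotinylated p53 residues 1-83 for 60 min, 2% DMSO final. Inhibition expressed versus nutlin-3.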

T1 sequence (Q00987 1-188): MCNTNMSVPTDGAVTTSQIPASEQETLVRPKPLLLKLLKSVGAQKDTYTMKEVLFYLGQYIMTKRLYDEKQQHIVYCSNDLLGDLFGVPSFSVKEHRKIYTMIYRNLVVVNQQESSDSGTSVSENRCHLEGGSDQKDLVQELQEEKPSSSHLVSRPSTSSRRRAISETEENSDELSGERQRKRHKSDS

Structure (SMILES) | IC50
NC(=O)C[C@H]1O[C@H](c2cccc(Cl)c2)[C@@H](c2ccc(Cl)cc2)N([C@H](CN(c2ccccc2F)S(=O)(=O)C2CC2)C2CC2)C1=O (single isomer, unassigned) [Example 257, 2-((2R,5R,6R)-6-(3-chlorophenyl)-5-(4-chlorophenyl)-4-((S)-1-cyclopropyl-2-(N-(2-fluorophenyl)cyclopropanesulfonamido)ethyl)-3-oxomorpholin-2-yl)acetamide or 2-((2S,5R,6R)-6-(3-chlorophenyl)-5-(4-chlorophenyl)-4-((S)-1-cyclopropyl-2-(N-(2-fluorophenyl)cyclopropanesulfonamido)ethyl)-3-oxomorpholin-2-yl)acetamide] | < 1 nM
CC(C)(C)S(=O)(=O)C[C@H](C1CC1)N1C(=O)[C@@H](CCO)O[C@H](c2cccc(Cl)c2)[C@H]1c1ccc(Cl)cc1 (single isomer, unassigned) [Example 370, (2R,5R,6R)-4-((S)-2-(tert-Butylsulfonyl)-1-cyclopropylethyl)-6-(3-chlorophenyl)-5-(4-chlorophenyl)-2-(2-hydroxyethyl)morpholin-3-one or (2S,5R,6R)-4-((S)-2-(tert-butylsulfonyl)-1-cyclopropylethyl)-6-(3-chlorophenyl)-5-(4-chlorophenyl)-2-(2-hydroxyethyl)morpholin-3-one] | 28 nM
C[C@@H](CS(=O)(=O)C(C)(C)C)N1C(=O)[C@@H](CC(=O)NO)O[C@H](c2cccc(Cl)c2)[C@H]1c1ccc(Cl)cc1 (single isomer, unassigned) [Example 230, 2-((2R,5R,6R)-4-((S)-1-(tert-butylsulfonyl)propan-2-yl)-6-(3-chlorophenyl)-5-(4-chlorophenyl)-3-oxomorpholin-2-yl)-N-hydroxyacetamide or 2-((2S,5R,6R)-4-((S)-1-(tert-butylsulfonyl)propan-2-yl)-6-(3-chlorophenyl)-5-(4-chlorophenyl)-3-oxomorpholin-2-yl)-N-hydroxyacetamide] | 7 nM
O=C(O)C[C@H]1O[C@H](c2cccc(Cl)c2)[C@@H](c2ccc(Cl)cc2)N([C@H](CN(c2cc(F)ccc2F)S(=O)(=O)C2CC2)C2CC2)C1=O (single isomer, unassigned) [Example 276, 2-((2R,5R,6R)-6-(3-Chlorophenyl)-5-(4-chlorophenyl)-4-((S)-1-cyclopropyl-2-(N-(2,5-difluorophenyl)cyclopropanesulfonamido)ethyl)-3-oxomorpholin-2-yl)acetic acid or 2-((2S,5R,6R)-6-(3-chlorophenyl)-5-(4-chlorophenyl)-4-((S)-1-cyclopropyl-2-(N-(2,5-difluorophenyl)cyclopropanesulfonamido)ethyl)-3-oxomorpholin-2-yl)acetic acid] | < 1 nM
CC[C@@H](CN(C)S(=O)(=O)C1CC1)N1C(=O)[C@@H](Cc2nnn[nH]2)O[C@H](c2cccc(Cl)c2)[C@H]1c1ccc(Cl)cc1 (single isomer, unassigned) [Example 243, N-((S)-2-((2R,5R,6R)-2-((1H-tetrazol-5-yl)methyl)-6-(3-chlorophenyl)-5-(4-chlorophenyl)-3-oxomorpholino)butyl)-N-methylcyclopropanesulfonamide or N-((S)-2-((2S,5R,6R)-2-((1H-tetrazol-5-yl)methyl)-6-(3-chlorophenyl)-5-(4-chlorophenyl)-3-oxomorpholino)butyl)-N-methylcyclopropanesulfonamide] | 1 nM
CC(C)(C)S(=O)(=O)C[C@H](C1CC1)N1C(=O)[C@@H](CC(=O)O)O[C@H](c2ccc(Cl)c(Cl)c2)[C@H]1c1ccc(Cl)cc1 (single isomer, unassigned) [Example 318, 2-((2R,5R,6R)-4-((S)-2-(tert-Butylsulfonyl)-1-cyclopropylethyl)-5-(4-chlorophenyl)-6-(3,4-dichlorophenyl)-3-oxomorpholin-2-yl)acetic acid or 2-((2S,5R,6R)-4-((S)-2-(tert-butylsulfonyl)-1-cyclopropylethyl)-5-(4-chlorophenyl)-6-(3,4-dichlorophenyl)-3-oxomorpholin-2-yl)acetic acid] | 8 nM
CC[C@@H](CN(C)S(=O)(=O)C1CC1)N1C(=O)[C@H](Cc2nnn[nH]2)O[C@H](c2cccc(Cl)c2)[C@H]1c1ccc(Cl)cc1 (single isomer, unassigned) [Example 244, N-((S)-2-((2S,5R,6R)-2-((1H-tetrazol-5-yl)methyl)-6-(3-chlorophenyl)-5-(4-chlorophenyl)-3-oxomorpholino)butyl)-N-methylcyclopropanesulfonamide or N-((S)-2-((2R,5R,6R)-2-((1H-tetrazol-5-yl)methyl)-6-(3-chlorophenyl)-5-(4-chlorophenyl)-3-oxomorpholino)butyl)-N-methylcyclopropanesulfonamide] | 1 nM
CC[C@@H](CS(=O)(=O)CCN(C)C)N1C(=O)[C@H](CC(=O)O)O[C@H](c2cccc(Cl)c2)[C@H]1c1ccc(Cl)cc1 (single isomer, unassigned) [Example 248, 2-((2S,5R,6R)-6-(3-chlorophenyl)-5-(4-chlorophenyl)-4-((S)-1-((2-(dimethylamino)ethyl)sulfonyl)butan-2-yl)-3-oxomorpholin-2-yl)acetic acid or 2-((2R,5R,6R)-6-(3-chlorophenyl)-5-(4-chlorophenyl)-4-((S)-1-((2-(dimethylamino)ethyl)sulfonyl)butan-2-yl)-3-oxomorpholin-2-yl)acetic acid] | 8 nM
O=C1[C@@H](Cc2cnn[nH]2)O[C@H](c2cccc(Cl)c2)[C@@H](c2ccc(Cl)cc2)N1[C@H](CN(c1ccccc1F)S(=O)(=O)C1CC1)C1CC1 (single isomer, unassigned) [Example 394, N-((S)-2-((2R,5R,6R)-2-((1H-1,2,3-Triazol-5-yl)methyl)-6-(3-chlorophenyl)-5-(4-chlorophenyl)-3-oxomorpholino)-2-cyclopropylethyl)-N-(2-fluorophenyl)cyclopropanesulfonamide or N-((S)-2-((2S,5R,6R)-2-((1H-1,2,3-triazol-5-yl)methyl)-6-(3-chlorophenyl)-5-(4-chlorophenyl)-3-oxomorpholino)-2-cyclopropylethyl)-N-(2-fluorophenyl)cyclopropanesulfonamide] | 1 nM
C[C@@H](CS(=O)(=O)C(C)(C)C)N1C(=O)[C@H](CC(=O)N(C)C)O[C@H](c2cccc(Cl)c2)[C@H]1c1ccc(Cl)cc1 (single isomer, unassigned) [Example 231, 2-((2S,5R,6R)-4-((S)-1-(tert-butylsulfonyl)propan-2-yl)-6-(3-chlorophenyl)-5-(4-chlorophenyl)-3-oxomorpholin-2-yl)-N,N-dimethylacetamide or 2-((2R,5R,6R)-4-((S)-1-(tert-butylsulfonyl)propan-2-yl)-6-(3-chlorophenyl)-5-(4-chlorophenyl)-3-oxomorpholin-2-yl)-N,N-dimethylacetamide] | 16 nM
CC[C@@H](CN(c1ccccc1F)S(=O)(=O)C1CC1)N1C(=O)[C@@H](CCC(=O)O)O[C@H](c2cccc(Cl)c2)[C@H]1c1ccc(Cl)cc1 (single isomer, unassigned) [Example 262, 3-((2R,5R,6R)-6-(3-chlorophenyl)-5-(4-chlorophenyl)-4-((S)-1-(N-(2-fluorophenyl)cyclopropanesulfonamido)butan-2-yl)-3-oxomorpholin-2-yl)propanoic acid or 3-((2S,5R,6R)-6-(3-chlorophenyl)-5-(4-chlorophenyl)-4-((S)-1-(N-(2-fluorophenyl)cyclopropanesulfonamido)butan-2-yl)-3-oxomorpholin-2-yl)propanoic acid] | 2 nM
CC(C)(C)S(=O)(=O)C[C@H](CC(F)(F)F)N1C(=O)[C@@](C)(CC(=O)O)O[C@H](c2cccc(Cl)c2)[C@H]1c1ccc(Cl)cc1 (single isomer, unassigned) [Example 340, 2-((2R,5R,6R)-4-((S)-1-(tert-Butylsulfonyl)-4,4,4-trifluorobutan-2-yl)-6-(3-chlorophenyl)-5-(4-chlorophenyl)-2-methyl-3-oxomorpholin-2-yl)acetic acid or 2-((2S,5R,6R)-4-((S)-1-(tert-butylsulfonyl)-4,4,4-trifluorobutan-2-yl)-6-(3-chlorophenyl)-5-(4-chlorophenyl)-2-methyl-3-oxomorpholin-2-yl)acetic acid] | 28 nM
CC[C@@H](CS(=O)(=O)C(C)(C)C)N1C(=O)[C@@H](CCO)O[C@H](c2cccc(Cl)c2)[C@H]1c1ccc(Cl)cc1 [Example 152, (2R,5R,6R)-4-((S)-1-(tert-butylsulfonyl)butan-2-yl)-6-(3-chlorophenyl)-5-(4-chlorophenyl)-2-(2-hydroxyethyl)morpholin-3-one] | 37 nM
CC[C@@H](CS(=O)(=O)C(C)(C)C)N1C(=O)[C@@H](CC(=O)CO)O[C@H](c2cccc(Cl)c2)[C@H]1c1ccc(Cl)cc1 (single isomer, unassigned) [Example 245, (2R,5R,6R)-4-((S)-1-(tert-butylsulfonyl)butan-2-yl)-6-(3-chlorophenyl)-5-(4-chlorophenyl)-2-(3-hydroxy-2-oxopropyl)morpholin-3-one or (2S,5R,6R)-4-((S)-1-(tert-butylsulfonyl)butan-2-yl)-6-(3-chlorophenyl)-5-(4-chlorophenyl)-2-(3-hydroxy-2-oxopropyl)morpholin-3-one] | 9 nM
C=CC[C@@H]1O[C@H](c2cccc(Cl)c2)[C@@H](c2ccc(Cl)cc2)N([C@@H](CC)CN(c2ccccn2)S(=O)(=O)C2CC2)C1=O (single isomer, unassigned) [Example 178, N-((S)-2-((2S,5R,6R)-2-allyl-6-(3-chlorophenyl)-5-(4-chlorophenyl)-3-oxomorpholino)butyl)-N-(pyridin-2-yl)cyclopropanesulfonamide or N-((S)-2-((2R,5R,6R)-2-allyl-6-(3-chlorophenyl)-5-(4-chlorophenyl)-3-oxomorpholino)butyl)-N-(pyridin-2-yl)cyclopropanesulfonamide] | 182 nM
